Source: US20060040884A1, “Antisense oligonucleotides directed to genes regulated by trapoxin-induced HDAC inhibition” (priority 2001, published 2006)
Several values for one entry are separate records, joined by “and”; a condition that tells them apart may be missing. Identical values can stand only once. Marks after values point to notes of the source that are not given here. Square brackets hold non-standard residues; d marks the D form. Peptide text beside a SMILES is read from it. ξ: configuration not given here. Aoe(9ξ) = N[C@@H](CCCCCC(=O)C1CO1)C(=O)O; dPip = O=C(O)[C@H]1CCCCN1

Test system: H1299 cells
Assay: Microarray expression profiling of TPX- vs DMSO-treated H1299 cells (Affymetrix HU6800 and Incyte UniGem V arrays)
Format: cell-based, human
Conditions: 30 nM vs DMSO
Procedure: Cell Culture and Drug Treatments. […] H1299 cells at 60 to 80% confluence are treated with 30 nM TPX dissolved in dimethyl sulphoxide for a final concentration of 0.1% Me2SO in cell culture medium or 0.1% Me2SO for 0, 6, 12, and 18 h.
Incyte cDNA arrays. H1299 cells are treated with 30 nM TPX dissolved in Me2SO or Me2SO for 0, 6, 12 and 18 h. Final Me2SO concentrations were 0.1% in cell culture medium. Total RNA is extracted using TRIZOL reagent (Life Technologies, Rockville, Md.) and purified using RNAeasy reagents (Qiagen, Valencia Calif.). Poly (A)^+ RNA (mRNA) is prepared from total RNA using Oligotex columns (Qiagen, Valencia, Calif.) and the procedure is repeated twice to minimize contamination with ribosomal RNA. The mRNA concentrations are determined using RiboGreen RNA Quantitation kit (Molecular Probes, Eugene, Oreg.) and equal amounts of mRNA from each sample is used in labeling reactions that are performed by Synteni Division of Incyte Genomics, Inc. (Palo Alto, Calif.). Complementary DNAs are prepared by […] and labeled with Cy3-deoxyuridine triphosphate (Cy3) or Cy5-deoxyuridine triphosphate (Cy5) fluorescent nucleotides. cDNA samples from cells that are treated with Me2SO are labeled with Cy3 and the TPX-treated samples are labeled with Cy5. Replicates were labeled with reversed fluorescent labels to accommodate biases attributable to labeling. The Cy3 and Cy5 samples from each time point are combined and hybridized to UniGem […] arrays (Iyer, V. R., et al., (1999) Science 283, 83-87). This array contains cDNAs that represent approximately 7000 human genes.
Affymetrix oligonucleotide arrays. Total RNA and Poly (A)^+ RNA is isolated from TPX or Me2SO-treated H1299 cells essentially as it was for Incyte cDNA arrays. Total RNA is isolated from p21^waf1-10 cells that are grown in the presence or in the absence of tetracycline for 6, 12 and 48 h. 1st strand cDNA synthesis is performed using Superscript Choice System (Life Technologies) and a T7prFB-t30 primer, 5′-AAACGACGGCACA […]-t30-3′ (SEQ ID NO 1). Biotinylated complementary […] is made using the T7 Megascript system (Ambion, Austin, Tex.), substituting NTP labeling-mix containing biotinylated CTP and UTP. The labeled, purified cDNA is fragmented into <50 bp pieces at 95° C. in MgCl2 buffer to-increase the efficiency of hybridization to 20-mer oligos on the arrays. These labeled fragments are hybridized to HU6800 arrays (Affymetrix, Santa Clara, Calif.) as described previously (Lockhart, D. J., et al., (1996) Nat. Biotechnol. 14, 1675-1680; Alon, U. et al., (1999) Proc. Natl. Acad. Sci. U.S.A. 96, 6745-6750). This array represents approximately 7000 human genes. Briefly, samples are hybridized for 16 h at 45° C. with constant rotation at 60 rpm. The arrays are washed and stained using an Affymetrix fluidics station. The stain included streptavidin-phycoerythrin (10 μg/ml; Molecular Probes, Eugene, Oreg.) and biotinylated goat anti-streptavidin (3 μg/ml; Vector Laboratories, Burlingame, Calif.).
Imaging and Data Analysis. Affymetrix arrays are scanned with a HP argon-ion laser confocal microscope, with a 488 nm […] and detection at 570 nm. Affymetrix fold changes are calculated using GeneChip 3.3 software (Affymetrix). Incyte Pharmaceutical Inc. uses a laser confocal microscope to determine the fluorescence intensities from Incyte cDNA arrays. The fluorescent images (Cy3 and Cy5) from the Incyte cDNA arrays are normalized to total fluorescence from each channel for all genes for labeling efficiency differences and considered the normalized data is used for calculation of the gene expression ratios.

In the case of O=C(CCCCC[C@@H]1NC(=O)[C@H]2CCCCN2C(=O)[C@H](Cc2ccccc2)NC(=O)[C@H](Cc2ccccc2)NC1=O)C1CO1 (stereo partly drawn) [TPX, Trapoxin A] (cyclo(FF[dPip][Aoe(9ξ)])), the “Fold change, D85429 Hsp 40” value (12 h) is reported as 4.8^8 fold and 5.3^8 fold, the “Fold change, J03909 γ-IFN-inducible, IP-30” value (12 h) is reported as 4.7^7 fold and 5.2^8 fold and the “Fold change, L03840 Fibroblast growth factor receptor” value (12 h) is reported as 3.2* fold and 4.9^1 fold. The “Fold change, L32976 Mixed lineage kinase-3” value (12 h) was −2.4* fold, the “Fold change, M12174 RhoB” value (12 h) was 5.2^8 fold and 4.5^8 fold and the “Fold change, M16938 Homeobox C8” value (12 h) was “NC (<2 fold change in expression level (NC))”. For the same compound, the “Fold change, M55153 Transglutaminase 2” value (12 h) was “NC (<2 fold change in expression level (NC))”, the “Fold change, M59828 Hsp 70” value (12 h) was “NC (<2 fold change in expression level (NC))” and the “Fold change, M76125 Tyrosine kinase receptor (TKR) axl” value (12 h) was “NC (<2 fold change in expression level (NC))”. For the same compound, the “Fold change, M80244 Human E16” value (12 h) was “NC (<2 fold change in expression level (NC))”, the “Fold change, M86406 Actinin” value (12 h) was 2.1 fold and 2.4 fold and the “Fold change, NM006603 Stromal antigen 2” value (12 h) was “NC (<2 fold change in expression level (NC))”. The “Fold change, U03057 Actin-bundling protein” value (12 h) was 2.4^7 fold and 2.0^7 fold, the “Fold change, U09578 MAKAP kinase (3 pk)” value (12 h) was “NC (<2 fold change in expression level (NC))” and the “Fold change, U09579 p21waf1 (1st line)” value (12 h) was 10.5^8 fold and 7.0^8 fold. The “Fold change, U09579 p21waf1 (2nd line)” value (12 h) was 3.4 fold and 3.6 fold, the “Fold change, U09937 Upa receptor (UpaR) (1st line)” value (12 h) was “NC (<2 fold change in expression level (NC))” and the “Fold change, U14750 Connective tissue growth factor” value (12 h) was 5.6 fold and 3.5 fold. The “Fold change, U15782 Cleavage stimulation factor 3” value (12 h) was “NC (<2 fold change in expression level (NC))”, the “Fold change, U25804 Caspase-4” value (12 h) was “NC (<2 fold change in expression level (NC))” and the “Fold change, U30827 Srp40” value (12 h) was “NC (<2 fold change in expression level (NC))”. The “Fold change, U31875 Hep27” value (12 h) was 11.2^8 fold and 12.3^8 fold, the “Fold change, U32519 GAP SH3 binding protein” value (12 h) was 8.3^8 fold and 4.3^3 fold and the “Fold change, U48795 Cathelicidin antimicrobial peptide” value (12 h) was 8.5 fold. For the same compound, the “Fold change, U56833 VBP-1” value (12 h) was “NC (<2 fold change in expression level (NC))”, the “Fold change, U77413 O-linked-N-acetylglucosamine transferase” value (12 h) was “NC (<2 fold change in expression level (NC))” and the “Fold change, U84214 Defender against cell death 1” value (12 h) was 2.5 fold and 2.0 fold. The “Fold change, X03473 Histone H1 (0) [Chromatin remodeling]” value (12 h) was 12.0^8 fold and 11.9^8 fold, the “Fold change, X03473 Histone H1 (0) [Differentiation]” value (12 h) was 12.0^8 fold and 11.9^8 fold and the “Fold change, X04429 Plasminogen activator inhibitor 1” value (12 h) was “NC (<2 fold change in expression level (NC))”. For the same compound, the “Fold change, X16396 NAD-dependent methylene teterahydrofolate dehydrogenase-methylenyltetrahydrofolate cyclohydrolase” value (12 h) was “NC (<2 fold change in expression level (NC))”, the “Fold change, X37547 Inhibitor of apoptisis homolog C” value (12 h) was “NC (<2 fold change in expression level (NC))” and the “Fold change, X53586 Integrin α-6” value (12 h) was “NC (<2 fold change in expression level (NC))”. The “Fold change, X55740 5′-nucleotidase” value (12 h) was “NC (<2 fold change in expression level (NC))”, the “Fold change, X66029 TKR axl” value (12 h) was “NC (<2 fold change in expression level (NC))” and the “Fold change, X78687 G9 sialidase” value (12 h) was 4.3^8 fold and 4.5^8 fold. The “Fold change, A1581499 Apoptosis inhibitor 2” value (18 h) was “NC (<2 fold change in expression level (NC))”, the “Fold change, AB011146 KIAA0574, similar to an RNA binding protein” value (18 h) was “NC (<2 fold change in expression level (NC))” and the “Fold change, AF012086 RAN-binding protein 2-like” value (18 h) was “NC (<2 fold change in expression level (NC))”. For the same compound, the “Fold change, AF052578 RAN [Small GTP-ases]” value (18 h) was 2.5 fold and 3.3 fold, the “Fold change, AF109161 p35srj [Stress]” value (18 h) was 3.4 fold and 3.3 fold and the “Fold change, AF109161 p35srj [Transformation and TKRs]” value (18 h) was 3.4 fold and 3.3 fold. The “Fold change, AL047358 Insulin-induced gene 1” value (18 h) was 2.0 fold and 2.9 fold, the “Fold change, AL047358 Spermidine/spermine N1-acetyltransferase” value (18 h) was 2.3 fold and 3.4 fold and the “Fold change, D31764 Eph1B-like tyrosine kinase receptor” value (18 h) was “NC (<2 fold change in expression level (NC))”. For the same compound, the “Fold change, D50525 TI-227H” value (18 h) was “NC (<2 fold change in expression level (NC))”, the “Fold change, D85429 Hsp 40” value (18 h) was 17.1^8 fold and 15.6^8 fold and the “Fold change, J03909 γ-IFN-inducible, IP-30” value (18 h) was 17.1^8 fold and 15.6^8 fold. The “Fold change, L03840 Fibroblast growth factor receptor” value (18 h) was 3.7 fold and 4.4 fold, the “Fold change, M12174 RhoB” value (18 h) was 6.2^8 fold and 6.1^8 fold and the “Fold change, M55153 Transglutaminase 2” value (18 h) was 2.1 fold and 2.6 fold. The “Fold change, M58286 TNF Receptor” value (18 h) was “NC (<2 fold change in expression level (NC))”, the “Fold change, M59828 Hsp 70” value (18 h) was “NC (<2 fold change in expression level (NC))” and the “Fold change, M80899 AHNAK nucleoprotein/desmoykin” value (18 h) was “NC (<2 fold change in expression level (NC))”. The “Fold change, M86406 Actinin” value (18 h) was “NC (<2 fold change in expression level (NC))”, the “Fold change, U03057 Actin-bundling protein” value (18 h) was “NC (<2 fold change in expression level (NC))” and the “Fold change, U09579 p21waf1 (1st line)” value (18 h) was 3.8* fold and 4.0* fold. For the same compound, the “Fold change, U09579 p21waf1 (2nd line)” value (18 h) was 2.7 fold and 3.1 fold, the “Fold change, U14750 Connective tissue growth factor” value (18 h) was 3.6 fold and 4.5 fold and the “Fold change, U19261 Epstein-Barr-induced LMP1” value (18 h) was “NC (<2 fold change in expression level (NC))”. The “Fold change, U28749 High mobility group phosphoprotein I-C (HMGI-C) (1st line)” value (18 h) was “NC (<2 fold change in expression level (NC))”, the “Fold change, U30827 Srp40” value (18 h) was “NC (<2 fold change in expression level (NC))” and the “Fold change, U31875 Hep27” value (18 h) was 7.1^8 fold and 8.3^8 fold. The “Fold change, U32519 GAP SH3 binding protein” value (18 h) was 4.6^8 fold and 4.2^8 fold, the “Fold change, U48795 Cathelicidin antimicrobial peptide” value (18 h) was “NC (<2 fold change in expression level (NC))” and the “Fold change, U68019 hMAD3” value (18 h) was “NC (<2 fold change in expression level (NC))”. For the same compound, the “Fold change, U79285 Clone 23828” value (18 h) was “NC (<2 fold change in expression level (NC))”, the “Fold change, U84214 Defender against cell death 1” value (18 h) was “NC (<2 fold change in expression level (NC))” and the “Fold change, X03473 Histone H1 (0) [Chromatin remodeling]” value (18 h) was 3.4* fold and 3.6* fold. For the same compound, the “Fold change, X03473 Histone H1 (0) [Differentiation]” value (18 h) was 3.4* fold and 3.6* fold, the “Fold change, X37546 Inhibitor of apoptisis homolog B” value (18 h) was “NC (<2 fold change in expression level (NC))” and the “Fold change, X78687 G9 sialidase” value (18 h) was 3.3^8 fold and 2.6^8 fold.
